ChEMBL document CHEMBL1201862, “PubChem BioAssay data set” (2004)
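Step 1: Grow cells in 96-well plates. Step 2: Expose to compound for 48 hours at 5 concentrations. Step 3: Interpolate endpoints linearly; if unreached, use highest concentration. GI50 is the concentration that inhibits growth by half.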 Active and inactive are the calls of the source. No stated cut-off is given here; in the data, active = GI50 up to about 1.1 µM and inactive = higher. Starred links: 1 amine or outer side, 2 acyl side, 3 side chain; linkers in the order of their positions; H or OH if unused. Residues, ends and D or L forms follow the SMILES beside them. *: point of attachment. γGlu = O=C(O)[CH](CCC(=O)[*:2])N[*:1]; NHOH = ON*

Key:
Assay in all cases: NCI-60 cell line screen, 48 h
[1] = tested on: 786-0
[2] = tested on: HOP-92
[3] = tested on: MCF7
[4] = tested on: HCT-116
[5] = tested on: DU-145
[6] = tested on: PC-3
[7] = tested on: SK-OV-3
[8] = tested on: ACHN
[9] = tested on: LOX IMVI
[10] = tested on: UACC-257
[11] = tested on: NCI-H522
[12] = tested on: SK-MEL-28
[13] = tested on: SW-620
[14] = tested on: SF-539
[15] = tested on: OVCAR-4
[16] = tested on: UACC-62
[17] = tested on: CAKI-1
[18] = tested on: RXF 393
[19] = tested on: Malme-3M
[20] = tested on: RPMI-8226
[21] = tested on: M14
[22] = tested on: NCI-H460
[23] = tested on: SK-MEL-2
[24] = tested on: MOLT-4
[25] = tested on: SF-295
[26] = tested on: IGROV-1
[27] = tested on: TK-10
[28] = tested on: HT-29
[29] = tested on: UO-31
[30] = tested on: A549
[31] = tested on: NCI/ADR-RES
[32] = tested on: KM12
[33] = tested on: CCRF-CEM
[34] = tested on: COLO 205
[35] = tested on: OVCAR-5
[36] = tested on: EKVX
[37] = tested on: U-251
[38] = tested on: NCI-H226
[39] = tested on: MDA-MB-231
[40] = tested on: K562
[41] = tested on: BT-549
[42] = tested on: SN12C
[43] = tested on: MDA-MB-435
[44] = tested on: HL-60
[45] = tested on: HCC 2998
[46] = tested on: HCT-15
[47] = tested on: T47D
[48] = tested on: Hs-578T
[49] = tested on: HOP-62
[50] = tested on: A498
[51] = tested on: OVCAR-8
[52] = tested on: OVCAR-3
[53] = tested on: SNB-19
[54] = tested on: SF-268
[55] = tested on: SNB-75
[56] = tested on: NCI-H23
[57] = tested on: SK-MEL-5
[58] = tested on: MDA-N

O=C1NC(c2ccccc2)N=C2Oc3ccccc3C=C12 (stereo not given)
GI50 [1]: 0.281 µM (active)
GI50 [2]: 47.2 µM (inactive)
GI50 [3]: 0.359 µM (active)
GI50 [4]: 0.263 µM (active)
GI50 [5]: 0.231 µM (active)
GI50 [6]: 0.0753 µM (active)
GI50 [7]: 0.0424 µM (active)
GI50 [8]: 2.87 µM (inactive)
GI50 [9]: 5.12 µM (inactive)
GI50 [10]: 0.065 µM (active)
GI50 [11]: 0.622 µM (active)
GI50 [12]: 38.7 µM (inactive)
GI50 [13]: 0.621 µM (active)
GI50 [14]: 2.6 µM (inactive)
GI50 [15]: > 100 µM (inactive)
GI50 [16]: 0.127 µM (active)
GI50 [17]: 0.0255 µM (active)
GI50 [18]: 0.603 µM (active)
GI50 [19]: 0.122 µM (active)
GI50 [20]: 19.3 µM (inactive)
GI50 [21]: 0.194 µM (active)
GI50 [22]: 0.565 µM (active)
GI50 [23]: 1.26 µM (inactive)
GI50 [24]: 1.69 µM (inactive)
GI50 [25]: 0.444 µM (active)
GI50 [26]: 0.535 µM (active)
GI50 [27]: > 63.1 µM (inactive)
GI50 [28]: 1.68 µM (inactive)
GI50 [29]: 8.22 µM (inactive)
GI50 [30]: 1.73 µM (inactive)
GI50 [31]: 0.533 µM (active)
GI50 [32]: 2.62 µM (inactive)
GI50 [33]: 0.562 µM (active)
GI50 [34]: 0.0731 µM (active)
GI50 [35]: 1.04 µM (active)
GI50 [36]: 0.181 µM (active)
GI50 [37]: 4.21 µM (inactive)
GI50 [38]: 0.579 µM (active)
GI50 [39]: 0.569 µM (active)
GI50 [40]: 1.28 µM (inactive)
GI50 [41]: 32.6 µM (inactive)
GI50 [42]: 3.27 µM (inactive)
GI50 [43]: < 0.0265 µM (active)
GI50 [44]: 0.212 µM (active)
GI50 [45]: 0.0277 µM (active)
GI50 [46]: 0.153 µM
GI50 [47]: > 100 µM (inactive)
GI50 [48]: 0.521 µM (active)
GI50 [49]: 0.543 µM (active)
GI50 [50]: 1.27 µM (inactive)
GI50 [51]: 3.47 µM (inactive)
GI50 [52]: 0.0897 µM (active)
GI50 [53]: 4.61 µM (inactive)
GI50 [54]: 5.98 µM (inactive)
GI50 [55]: 0.547 µM (active)
GI50 [56]: 0.151 µM (active)
GI50 [57]: 0.185 µM (active)
GI50 [58]: 0.0738 µM (active)

CCOC(=O)CNC(=O)C(CCC(=O)NO)NC(=O)CCC(N)C(=O)O (stereo not given) (γGlu-Glu(NHOH)-Gly-OEt; configuration not given here)
GI50 [1]: > 100 µM (inactive)
GI50 [2]: > 100 µM (inactive)
GI50 [3]: > 100 µM (inactive)
GI50 [4]: > 100 µM (inactive)
GI50 [5]: > 100 µM (inactive)
GI50 [6]: > 100 µM (inactive)
GI50 [7]: > 100 µM (inactive)
GI50 [8]: > 100 µM (inactive)
GI50 [9]: > 100 µM (inactive)
GI50 [10]: > 100 µM (inactive)
GI50 [11]: > 100 µM (inactive)
GI50 [12]: > 100 µM (inactive)
GI50 [13]: > 100 µM (inactive)
GI50 [14]: > 100 µM (inactive)
GI50 [15]: > 100 µM (inactive)
GI50 [16]: > 100 µM (inactive)
GI50 [17]: > 100 µM (inactive)
GI50 [18]: > 100 µM (inactive)
GI50 [20]: > 100 µM (inactive)
GI50 [21]: > 100 µM (inactive)
GI50 [22]: > 100 µM (inactive)
GI50 [23]: > 100 µM (inactive)
GI50 [24]: > 100 µM (inactive)
GI50 [25]: > 100 µM (inactive)
GI50 [26]: > 100 µM (inactive)
GI50 [27]: > 100 µM (inactive)
GI50 [28]: > 100 µM (inactive)
GI50 [29]: > 100 µM (inactive)
GI50 [30]: > 100 µM (inactive)
GI50 [31]: > 100 µM (inactive)
GI50 [32]: > 100 µM (inactive)
GI50 [33]: > 100 µM (inactive)
GI50 [34]: > 100 µM (inactive)
GI50 [35]: > 100 µM (inactive)
GI50 [36]: > 100 µM (inactive)
GI50 [37]: > 100 µM (inactive)
GI50 [38]: > 100 µM (inactive)
GI50 [39]: > 100 µM (inactive)
GI50 [40]: > 100 µM (inactive)
GI50 [41]: > 100 µM (inactive)
GI50 [42]: > 100 µM (inactive)
GI50 [43]: > 100 µM (inactive)
GI50 [44]: > 100 µM (inactive)
GI50 [45]: > 100 µM (inactive)
GI50 [46]: > 100 µM
GI50 [47]: > 100 µM (inactive)
GI50 [48]: > 100 µM (inactive)
GI50 [49]: > 100 µM (inactive)
GI50 [50]: > 100 µM (inactive)
GI50 [51]: > 100 µM (inactive)
GI50 [52]: > 100 µM (inactive)
GI50 [53]: > 100 µM (inactive)
GI50 [54]: > 100 µM (inactive)
GI50 [55]: > 100 µM (inactive)
GI50 [56]: > 100 µM (inactive)
GI50 [57]: > 100 µM (inactive)
GI50 [58]: > 100 µM (inactive)
